# Laboratory results as given in patent US20260034094A1, “COMPOSITIONS AND METHODS FOR INDUCING FERROPTOSIS” (Kojin Therapeutics, Inc., priority 2022, published 2026).
# System: RKN cells
# Experiment: RKN cell profiling assay (cell viability, CellTiter-Glo)
# Type: cell-based
# Settings: 96 h, 96 h exposure, read-out: Cell Killing EC50
# Description: RKN cells were suspended in assay medium (F-12 medium supplemented with 10% FBS and penicillin/streptomycin) and seeded at 1,000 cells per well (30 μL total volume) in opaque white 384-well plates (Corning). Cells were allowed to adhere for 24 h at 37° C. (95% humidity, 5% CO2) and then exposed to compounds disclosed herein for 72 h, or in the present case, 96 h. DMSO stock solutions of compounds were added to cells using a D300e Digital Dispenser (Tecan). The final DMSO concentration in each well was normalized to 0.5% (v/v) after compound treatment. Cell viability was measured using CellTiter-Glo (Promega). After incubation for 15 min at room temperature, luminescence was measured using a PHERAstar FSX microplate reader (BMG Labtech). Ferroptosis rescue experiments were performed as described previously using cells treated with ferrostatin-1 (fer-1, 1.5 μM) when seeding assay plates. Dose-response data were analyzed to determine EC50 values with GraphPad Prism 9 software using a four-parameter logistic equation or CDD Vault (Collaborative Drug Discovery) using the Levenberg-Marquardt algorithm.
row,SMILES,EC50 [µM]
1,N=S(=O)(CCc1cccc(Cl)c1F)CC[C@H](N)C(=O)O (some centres unmarked) [Compound 28],≥ 1000
2,CC(C)(C)CCS(=N)(=O)CC[C@H](N)C(=O)OC(C)(C)C (some centres unmarked) [Compound 96],≥ 1000
3,CCCCS(=N)(=O)CC[C@H](N)C(=O)NC (some centres unmarked) [Compound 107],≥ 1000
4,CC(C)(C)CCS(=N)(=O)CC[C@H](N)C(=O)Nc1nccs1 (some centres unmarked) [Compound 121],≥ 1000
5,"N[C@@H](CC[S@@](=O)(CCCC(F)(F)F)=NP(=O)(O)O)C(=O)O [Compound 138, (S)-2-amino-4-((S)-4,4,4-trifluoro-N-phosphonobutylsulfonimidoyl)butanoic acid]",< 1000
6,"CCCCS(=N)(=O)CC[C@H](N)c1nnn[nH]1 (stereo partly drawn) [Compound 200, (1S)-3-(butylsulfonimidoyl)-1-(1H-tetrazol-5-yl)propan-1-amine]",≥ 1000

# Same assay, conditions: cell viability, read-out: Cell Killing EC50
row,SMILES,EC50 [µM]
1,"N=S(=O)(CCC(c1ccc(-c2ccccc2Cl)cc1)C(F)(F)F)CC[C@H](N)C(=O)O (single isomer, unassigned) [Compound 219]",≥ 1000
2,"N=[S@](=O)(CC[C@H](N)C(=O)O)CCC(O)(c1ccccc1)C(F)(F)F (single isomer, unassigned) [Compound 346]",≥ 1000
3,N=S(=O)(CCC(c1ccc(-c2ccccc2F)cc1)C(F)(F)F)CC[C@H](N)C(=O)O (some centres unmarked) [Compound 217],< 1000
4,N=S(=O)(CCC(c1ccc(-c2ccccc2Cl)cc1)C(F)(F)F)CC[C@H](N)C(=O)O (some centres unmarked) [Compound 220],< 1000
5,N=S(=O)(CCC(c1ccc(-c2ccccc2Cl)cc1)C(F)(F)F)CC[C@H](N)C(=O)O (some centres unmarked) [Compound 221],< 1000
6,N=S(=O)(CCC(c1ccc(C2CC2)cc1)C(F)(F)F)CC[C@H](N)C(=O)O (some centres unmarked) [Compound 225],< 1000
7,N=S(=O)(CCC(c1ccc(-c2ccc(Br)cc2)cc1)C(F)(F)F)CC[C@H](N)C(=O)O (some centres unmarked) [Compound 226],< 1000
8,N=S(=O)(CCC(c1ccc(-c2cn[nH]c2)cc1)C(F)(F)F)CC[C@H](N)C(=O)O (some centres unmarked) [Compound 227],≥ 1000
9,N=S(=O)(CCC(c1ccc(-c2cc[nH]n2)cc1)C(F)(F)F)CC[C@H](N)C(=O)O (some centres unmarked) [Compound 228],≥ 1000
10,N=S(=O)(CCC(c1ccc(-c2cccc(C(N)=O)c2)cc1)C(F)(F)F)CC[C@H](N)C(=O)O (some centres unmarked) [Compound 229],≥ 1000
11,CNC(=O)c1cccc(-c2ccc(C(CCS(=N)(=O)CC[C@H](N)C(=O)O)C(F)(F)F)cc2)c1 (some centres unmarked) [Compound 230],≥ 1000
12,N=S(=O)(CCC(c1ccc(-c2ccc(C(F)F)cc2)cc1)C(F)(F)F)CC[C@H](N)C(=O)O (some centres unmarked) [Compound 231],< 1000
13,N=S(=O)(CCC(c1ccc(-c2ccccc2O)cc1)C(F)(F)F)CC[C@H](N)C(=O)O (some centres unmarked) [Compound 235],< 1000
14,CC(C)(O)c1cccc(-c2ccc(C(CCS(=N)(=O)CC[C@H](N)C(=O)O)C(F)(F)F)cc2)c1 (some centres unmarked) [Compound 241],≥ 1000
15,N=S(=O)(CCC(c1ccc(-c2cccnc2)cc1)C(F)(F)F)CC[C@H](N)C(=O)O (some centres unmarked) [Compound 243],≥ 1000
16,N=S(=O)(CCC(c1ccc(-c2ccc(C(N)=O)nc2)cc1)C(F)(F)F)CC[C@H](N)C(=O)O (some centres unmarked) [Compound 245],≥ 1000
17,Cc1ccc(-c2ccc(C(CCS(=N)(=O)CC[C@H](N)C(=O)O)C(F)(F)F)cc2)cn1 (some centres unmarked) [Compound 246],≥ 1000
18,Cc1nc(Cl)ccc1-c1ccc(C(CCS(=N)(=O)CC[C@H](N)C(=O)O)C(F)(F)F)cc1 (some centres unmarked) [Compound 248],< 1000
19,CN1CCN(c2ccc(-c3ccc(C(CCS(=N)(=O)CC[C@H](N)C(=O)O)C(F)(F)F)cc3)cn2)CC1 (some centres unmarked) [Compound 249],≥ 1000
20,N=S(=O)(CCC(c1ccc(-c2cnc(N)nc2)cc1)C(F)(F)F)CC[C@H](N)C(=O)O (some centres unmarked) [Compound 251],≥ 1000
21,N=S(=O)(CCC(c1ccc(-c2cnc(C3CC3)nc2)cc1)C(F)(F)F)CC[C@H](N)C(=O)O (some centres unmarked) [Compound 252],≥ 1000

row,SMILES,EC50 [µM]
1,N=S(=O)(CCC(c1ccc(-c2cnc3[nH]ccc3c2)cc1)C(F)(F)F)CC[C@H](N)C(=O)O (some centres unmarked) [Compound 253],< 1000
2,N=S(=O)(CCC(c1ccc(-c2cnc3[nH]ncc3c2)cc1)C(F)(F)F)CC[C@H](N)C(=O)O (some centres unmarked) [Compound 254],≥ 1000
3,N=S(=O)(CCC(c1ccc(-c2ccc3cn[nH]c3c2)cc1)C(F)(F)F)CC[C@H](N)C(=O)O (some centres unmarked) [Compound 255],≥ 1000
4,N=S(=O)(CCC(c1ccc(-c2ccc(Cl)s2)cc1)C(F)(F)F)CC[C@H](N)C(=O)O (some centres unmarked) [Compound 256],< 1000
5,N=S(=O)(CCC(c1ccc(-c2ccsc2)cc1)C(F)(F)F)CC[C@H](N)C(=O)O (some centres unmarked) [Compound 257],< 1000
6,N=S(=O)(CCC(c1ccc(-c2ccoc2)cc1)C(F)(F)F)CC[C@H](N)C(=O)O (some centres unmarked) [Compound 258],< 1000
7,N=S(=O)(CCC(c1ccc(C2=CCNCC2)cc1)C(F)(F)F)CC[C@H](N)C(=O)O (some centres unmarked) [Compound 259],≥ 1000
8,C=C(c1ccc(C(CCS(=N)(=O)CC[C@H](N)C(=O)O)C(F)(F)F)cc1)C(F)(F)F (some centres unmarked) [Compound 260],≥ 1000
9,C=Cc1ccc(C(CCS(=N)(=O)CC[C@H](N)C(=O)O)C(F)(F)F)cc1 (some centres unmarked) [Compound 261],< 1000
10,C=C(C)c1ccc(C(CCS(=N)(=O)CC[C@H](N)C(=O)O)C(F)(F)F)cc1 (some centres unmarked) [Compound 262],< 1000
11,CC(C)(O)c1ccc(C(CCS(=N)(=O)CC[C@H](N)C(=O)O)C(F)(F)F)cc1 (some centres unmarked) [Compound 263],≥ 1000
12,COc1ccccc1-c1ccc(C(CCS(=N)(=O)CC[C@H](N)C(=O)O)C(F)(F)F)cc1 (some centres unmarked) [Compound 264],< 1000
13,Cc1ccccc1-c1ccc(C(CCS(=N)(=O)CC[C@H](N)C(=O)O)C(F)(F)F)cc1 (some centres unmarked) [Compound 265],< 1000
14,CC(C)c1ccccc1-c1ccc(C(CCS(=N)(=O)CC[C@H](N)C(=O)O)C(F)(F)F)cc1 (some centres unmarked) [Compound 266],< 1000
15,N=S(=O)(CCC(c1ccc(-c2ccccc2C(F)(F)F)cc1)C(F)(F)F)CC[C@H](N)C(=O)O (some centres unmarked) [Compound 267],< 1000
16,COc1ccc(-c2ccc(C(CCS(=N)(=O)CC[C@H](N)C(=O)O)C(F)(F)F)cc2)c(Cl)c1 (some centres unmarked) [Compound 268],< 1000
17,N=S(=O)(CCC(c1ccc(-c2ccc(Cl)cc2Cl)cc1)C(F)(F)F)CC[C@H](N)C(=O)O (some centres unmarked) [Compound 269],< 1000
18,N=S(=O)(CCC(c1ccc(-c2ccc(O)cc2Cl)cc1)C(F)(F)F)CC[C@H](N)C(=O)O (some centres unmarked) [Compound 270],< 1000
19,N=S(=O)(CCC(c1ccc(-c2ccc(F)cc2Cl)cc1)C(F)(F)F)CC[C@H](N)C(=O)O (some centres unmarked) [Compound 271],< 1000
20,C#Cc1ccc(C(CCS(=N)(=O)CC[C@H](N)C(=O)O)C(F)(F)F)cc1 (some centres unmarked) [Compound 272],< 1000
21,N=S(=O)(CCC(c1cccc(C#Cc2ccccc2)c1)C(F)(F)F)CC[C@H](N)C(=O)O (some centres unmarked) [Compound 273],≥ 1000

row,SMILES,EC50 [µM]
1,Cc1cc(Cl)ccc1-c1ccc(C(CCS(=N)(=O)CC[C@H](N)C(=O)O)C(F)(F)F)cc1 (some centres unmarked) [Compound 275],< 1000
2,Cc1ccc(-c2ccc(C(CCS(=N)(=O)CC[C@H](N)C(=O)O)C(F)(F)F)cc2)c(Cl)c1 (some centres unmarked) [Compound 276],< 1000
3,N=S(=O)(CCC(c1ccc(-c2ccc(Cl)cc2)cc1)C(F)(F)F)CC[C@H](N)C(=O)O (some centres unmarked) [Compound 277],< 1000
4,Cc1cc(F)ccc1-c1ccc(C(CCS(=N)(=O)CC[C@H](N)C(=O)O)C(F)(F)F)cc1 (some centres unmarked) [Compound 278],< 1000
5,Cc1ccc(-c2ccc(C(CCS(=N)(=O)CC[C@H](N)C(=O)O)C(F)(F)F)cc2)c(C)c1 (some centres unmarked) [Compound 280],< 1000
6,N=S(=O)(CCC(c1ccc(-c2ccc(F)cc2O)cc1)C(F)(F)F)CC[C@H](N)C(=O)O (some centres unmarked) [Compound 281],< 1000
7,N=S(=O)(CCC(c1ccc(-c2ccc(Cl)cc2O)cc1)C(F)(F)F)CC[C@H](N)C(=O)O (some centres unmarked) [Compound 282],< 1000
8,Cc1cc(Cl)ccc1-c1cccc(C(CCS(=N)(=O)CC[C@H](N)C(=O)O)C(F)(F)F)c1 (some centres unmarked) [Compound 283],≥ 1000
9,Cc1ccc(-c2cccc(C(CCS(=N)(=O)CC[C@H](N)C(=O)O)C(F)(F)F)c2)c(F)c1 (some centres unmarked) [Compound 284],≥ 1000
10,Cc1ccc(-c2cccc(C(CCS(=N)(=O)CC[C@H](N)C(=O)O)C(F)(F)F)c2)cc1 (some centres unmarked) [Compound 285],≥ 1000
11,Cc1cccc(-c2cccc(C(CCS(=N)(=O)CC[C@H](N)C(=O)O)C(F)(F)F)c2)c1 (some centres unmarked) [Compound 286],≥ 1000
12,N=S(=O)(CCC(c1cccc(-c2cccc(F)c2)c1)C(F)(F)F)CC[C@H](N)C(=O)O (some centres unmarked) [Compound 287],≥ 1000
13,N=S(=O)(CCC(c1cccc(-c2ccc(Cl)cc2Cl)c1)C(F)(F)F)CC[C@H](N)C(=O)O (some centres unmarked) [Compound 288],≥ 1000
14,Cc1ccc(-c2cccc(C(CCS(=N)(=O)CC[C@H](N)C(=O)O)C(F)(F)F)c2)cc1F (some centres unmarked) [Compound 290],≥ 1000
15,N=S(=O)(CCC(c1ccc(S(=O)(=O)Cc2ccccc2)cc1)C(F)(F)F)CC[C@H](N)C(=O)O (some centres unmarked) [Compound 291],≥ 1000
16,N=S(=O)(CCC(c1cccc2ccccc12)C(F)(F)F)CC[C@H](N)C(=O)O (some centres unmarked) [Compound 311],< 1000
17,N=S(=O)(CCC(c1ccccn1)C(F)(F)F)CC[C@H](N)C(=O)O (some centres unmarked) [Compound 313],< 1000
18,N=S(=O)(CCC(c1ccc(-c2ccccc2)cc1Cl)C(F)(F)F)CC[C@H](N)C(=O)O (some centres unmarked) [Compound 315],≥ 1000
19,N=S(=O)(CCC(c1ccc(Oc2ccccc2)cc1)C(F)(F)F)CC[C@H](N)C(=O)O (some centres unmarked) [Compound 316],< 1000
20,N=S(=O)(CCC(c1ccc(-c2ccc(Cl)cc2Cl)cn1)C(F)(F)F)CC[C@H](N)C(=O)O (some centres unmarked) [Compound 317],< 1000
